Data on 5 molecules can be found in PMC5540273, “Progress towards a public chemogenomic set for protein kinases and a call for contributions” (PLoS ONE, 2017).

Experiment in all cases: KINOMEscan competition binding
The target of one assay is T1, DRAK2 (Homo sapiens, UniProt O94768).
T1 sequence (O94768 1-372): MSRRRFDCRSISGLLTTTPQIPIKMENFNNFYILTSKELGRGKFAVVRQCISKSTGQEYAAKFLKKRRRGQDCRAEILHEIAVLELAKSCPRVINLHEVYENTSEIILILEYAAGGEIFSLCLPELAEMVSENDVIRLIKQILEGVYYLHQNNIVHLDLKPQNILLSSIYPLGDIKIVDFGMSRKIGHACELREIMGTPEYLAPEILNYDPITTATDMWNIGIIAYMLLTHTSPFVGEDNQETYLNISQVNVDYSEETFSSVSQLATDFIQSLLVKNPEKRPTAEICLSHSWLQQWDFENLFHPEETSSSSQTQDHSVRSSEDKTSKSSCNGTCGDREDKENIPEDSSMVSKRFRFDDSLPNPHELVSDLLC
As to conditions: read-out: %Inh DRAK2.

A further assay addresses EPHA7 (Homo sapiens, UniProt Q15375). As to conditions: read-out: %Inh EPHA7.
Another assay concerns the target CSNK1G1 (Homo sapiens, UniProt Q9HCP0). As to conditions: read-out: %Inh CSNK1G1.
The target in the next assay is HIPK1 (Homo sapiens, UniProt Q86Z02). The note with it: read-out: %Inh HIPK1.
Sequence of HIPK1 (Q86Z02 whole entry): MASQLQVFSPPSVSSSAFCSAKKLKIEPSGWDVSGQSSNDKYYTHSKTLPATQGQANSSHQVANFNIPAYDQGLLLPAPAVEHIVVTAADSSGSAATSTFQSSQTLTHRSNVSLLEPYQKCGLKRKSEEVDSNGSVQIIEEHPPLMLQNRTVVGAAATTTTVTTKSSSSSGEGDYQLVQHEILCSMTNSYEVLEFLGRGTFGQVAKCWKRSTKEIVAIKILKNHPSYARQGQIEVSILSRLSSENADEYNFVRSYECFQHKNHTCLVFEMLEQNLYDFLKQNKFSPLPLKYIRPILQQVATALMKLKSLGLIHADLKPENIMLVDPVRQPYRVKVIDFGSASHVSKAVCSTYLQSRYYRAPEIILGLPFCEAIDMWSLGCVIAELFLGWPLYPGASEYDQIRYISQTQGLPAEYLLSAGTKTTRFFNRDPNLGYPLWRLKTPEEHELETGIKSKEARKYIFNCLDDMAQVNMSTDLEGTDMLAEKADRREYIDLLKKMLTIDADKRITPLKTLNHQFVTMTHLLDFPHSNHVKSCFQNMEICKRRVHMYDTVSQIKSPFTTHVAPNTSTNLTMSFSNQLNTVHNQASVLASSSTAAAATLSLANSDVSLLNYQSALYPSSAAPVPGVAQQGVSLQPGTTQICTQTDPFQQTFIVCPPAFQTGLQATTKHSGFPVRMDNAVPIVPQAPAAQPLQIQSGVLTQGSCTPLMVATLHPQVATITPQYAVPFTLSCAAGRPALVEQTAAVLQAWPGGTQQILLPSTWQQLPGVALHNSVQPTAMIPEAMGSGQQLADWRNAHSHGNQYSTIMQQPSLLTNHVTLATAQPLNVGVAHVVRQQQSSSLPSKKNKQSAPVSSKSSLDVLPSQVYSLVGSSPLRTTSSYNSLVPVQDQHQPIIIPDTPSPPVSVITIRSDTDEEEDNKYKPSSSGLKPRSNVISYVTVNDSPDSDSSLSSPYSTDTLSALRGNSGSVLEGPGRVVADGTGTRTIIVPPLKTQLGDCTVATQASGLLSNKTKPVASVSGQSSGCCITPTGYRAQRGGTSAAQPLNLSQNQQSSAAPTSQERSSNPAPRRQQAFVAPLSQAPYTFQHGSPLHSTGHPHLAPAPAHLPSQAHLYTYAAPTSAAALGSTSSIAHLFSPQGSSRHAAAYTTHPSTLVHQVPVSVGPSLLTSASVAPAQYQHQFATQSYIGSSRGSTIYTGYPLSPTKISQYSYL
A further assay concerns the target CAMK1B (Homo sapiens, UniProt Q6P2M8). The note with it: read-out: %Inh CAMK1B.
The target of another assay is T2, CDC2L2 (Homo sapiens, UniProt Q9UQ88).
T2 sequence (Q9UQ88 1-783): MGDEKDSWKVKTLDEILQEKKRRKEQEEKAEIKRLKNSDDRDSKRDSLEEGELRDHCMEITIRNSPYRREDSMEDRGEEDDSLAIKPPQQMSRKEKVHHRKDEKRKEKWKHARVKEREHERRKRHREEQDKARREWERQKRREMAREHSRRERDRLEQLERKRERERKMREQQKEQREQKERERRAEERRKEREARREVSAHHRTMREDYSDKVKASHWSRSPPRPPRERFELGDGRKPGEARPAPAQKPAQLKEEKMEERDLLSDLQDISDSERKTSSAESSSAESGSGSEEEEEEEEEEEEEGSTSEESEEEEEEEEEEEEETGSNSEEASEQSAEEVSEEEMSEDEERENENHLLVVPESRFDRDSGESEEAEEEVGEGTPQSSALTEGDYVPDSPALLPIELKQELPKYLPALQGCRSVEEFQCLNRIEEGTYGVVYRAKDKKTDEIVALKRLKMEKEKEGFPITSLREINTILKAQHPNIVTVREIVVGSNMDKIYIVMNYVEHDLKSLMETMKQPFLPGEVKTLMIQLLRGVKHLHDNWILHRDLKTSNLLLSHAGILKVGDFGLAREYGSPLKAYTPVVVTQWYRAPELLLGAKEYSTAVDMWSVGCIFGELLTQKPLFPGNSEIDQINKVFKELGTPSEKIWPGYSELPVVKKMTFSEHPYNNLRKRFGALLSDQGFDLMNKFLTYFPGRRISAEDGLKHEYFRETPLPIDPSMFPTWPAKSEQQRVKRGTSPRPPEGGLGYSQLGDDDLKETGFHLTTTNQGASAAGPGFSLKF
As to conditions: read-out: %Inh CDC2L2.

A further assay has as its target T3, DYRK2 (Homo sapiens, UniProt Q92630).
T3 sequence (Q92630 1-601): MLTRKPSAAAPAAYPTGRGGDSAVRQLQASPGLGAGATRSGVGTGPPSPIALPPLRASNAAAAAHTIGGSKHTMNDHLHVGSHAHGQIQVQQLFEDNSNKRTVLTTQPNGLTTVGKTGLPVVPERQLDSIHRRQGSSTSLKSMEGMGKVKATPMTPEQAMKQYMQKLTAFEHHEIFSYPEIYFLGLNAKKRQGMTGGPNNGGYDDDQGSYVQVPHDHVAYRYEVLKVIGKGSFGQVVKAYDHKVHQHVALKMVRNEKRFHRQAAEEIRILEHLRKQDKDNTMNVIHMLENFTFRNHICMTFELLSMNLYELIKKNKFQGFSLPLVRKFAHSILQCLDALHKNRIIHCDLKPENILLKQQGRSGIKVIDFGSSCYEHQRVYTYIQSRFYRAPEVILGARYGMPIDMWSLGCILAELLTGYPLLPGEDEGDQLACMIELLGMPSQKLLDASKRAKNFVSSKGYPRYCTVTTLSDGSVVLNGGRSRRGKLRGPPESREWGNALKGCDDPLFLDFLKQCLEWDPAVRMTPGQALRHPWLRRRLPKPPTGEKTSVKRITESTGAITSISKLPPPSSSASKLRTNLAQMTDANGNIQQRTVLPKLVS
As to conditions: read-out: %Inh DYRK2.

Another assay deals with CHEK2 (Homo sapiens, UniProt O96017). The note with it: read-out: %Inh CHEK2.
Sequence of CHEK2 (O96017 whole entry): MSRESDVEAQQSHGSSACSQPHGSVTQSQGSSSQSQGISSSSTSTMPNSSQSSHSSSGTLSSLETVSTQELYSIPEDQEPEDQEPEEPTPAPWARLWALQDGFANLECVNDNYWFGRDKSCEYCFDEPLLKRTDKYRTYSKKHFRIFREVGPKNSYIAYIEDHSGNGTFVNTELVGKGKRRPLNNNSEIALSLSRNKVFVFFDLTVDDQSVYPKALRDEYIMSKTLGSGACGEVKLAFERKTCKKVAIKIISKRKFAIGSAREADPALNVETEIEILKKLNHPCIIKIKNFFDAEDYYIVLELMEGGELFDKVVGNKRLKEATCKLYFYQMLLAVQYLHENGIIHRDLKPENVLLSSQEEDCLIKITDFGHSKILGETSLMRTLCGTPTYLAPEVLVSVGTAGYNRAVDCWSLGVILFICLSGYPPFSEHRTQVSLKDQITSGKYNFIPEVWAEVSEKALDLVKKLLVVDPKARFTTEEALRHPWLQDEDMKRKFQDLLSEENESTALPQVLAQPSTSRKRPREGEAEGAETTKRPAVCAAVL

Sequence of EPHA7 (Q15375 28-998): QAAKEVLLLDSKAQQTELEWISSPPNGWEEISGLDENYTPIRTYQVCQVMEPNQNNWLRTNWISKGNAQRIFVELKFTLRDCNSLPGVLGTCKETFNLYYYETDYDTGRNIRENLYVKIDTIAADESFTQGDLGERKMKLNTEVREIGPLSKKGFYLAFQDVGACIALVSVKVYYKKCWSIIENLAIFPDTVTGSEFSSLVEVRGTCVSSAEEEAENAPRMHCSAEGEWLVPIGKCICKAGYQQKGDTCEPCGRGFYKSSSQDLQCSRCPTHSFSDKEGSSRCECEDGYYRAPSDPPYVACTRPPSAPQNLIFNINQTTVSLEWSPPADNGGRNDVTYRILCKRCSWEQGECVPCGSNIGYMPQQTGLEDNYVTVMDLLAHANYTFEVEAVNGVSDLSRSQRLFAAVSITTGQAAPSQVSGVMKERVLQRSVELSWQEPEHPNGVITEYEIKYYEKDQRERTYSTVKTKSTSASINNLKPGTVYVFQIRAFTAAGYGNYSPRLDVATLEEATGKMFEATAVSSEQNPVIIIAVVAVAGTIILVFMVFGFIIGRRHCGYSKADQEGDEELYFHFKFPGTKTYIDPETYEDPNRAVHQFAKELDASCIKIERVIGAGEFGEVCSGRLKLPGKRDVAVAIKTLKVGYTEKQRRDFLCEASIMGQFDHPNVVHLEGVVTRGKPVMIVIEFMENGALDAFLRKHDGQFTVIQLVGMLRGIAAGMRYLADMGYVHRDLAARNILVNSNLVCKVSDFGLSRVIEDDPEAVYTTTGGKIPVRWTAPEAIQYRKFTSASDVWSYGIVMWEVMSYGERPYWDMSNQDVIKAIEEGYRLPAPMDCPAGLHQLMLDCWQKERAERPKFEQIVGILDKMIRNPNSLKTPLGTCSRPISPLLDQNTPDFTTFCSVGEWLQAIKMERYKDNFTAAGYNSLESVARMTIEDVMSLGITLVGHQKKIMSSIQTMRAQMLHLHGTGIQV
Sequence of CAMK1B (Q6P2M8 whole entry): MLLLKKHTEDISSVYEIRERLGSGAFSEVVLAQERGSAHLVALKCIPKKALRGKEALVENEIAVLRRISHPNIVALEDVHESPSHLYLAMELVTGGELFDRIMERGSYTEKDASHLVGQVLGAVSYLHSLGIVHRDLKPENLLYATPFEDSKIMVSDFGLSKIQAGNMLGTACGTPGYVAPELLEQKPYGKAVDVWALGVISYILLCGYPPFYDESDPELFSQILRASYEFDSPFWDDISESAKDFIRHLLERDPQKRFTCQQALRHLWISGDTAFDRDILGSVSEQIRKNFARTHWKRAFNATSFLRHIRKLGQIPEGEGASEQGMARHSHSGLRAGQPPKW
Sequence of CSNK1G1 (Q9HCP0 whole entry): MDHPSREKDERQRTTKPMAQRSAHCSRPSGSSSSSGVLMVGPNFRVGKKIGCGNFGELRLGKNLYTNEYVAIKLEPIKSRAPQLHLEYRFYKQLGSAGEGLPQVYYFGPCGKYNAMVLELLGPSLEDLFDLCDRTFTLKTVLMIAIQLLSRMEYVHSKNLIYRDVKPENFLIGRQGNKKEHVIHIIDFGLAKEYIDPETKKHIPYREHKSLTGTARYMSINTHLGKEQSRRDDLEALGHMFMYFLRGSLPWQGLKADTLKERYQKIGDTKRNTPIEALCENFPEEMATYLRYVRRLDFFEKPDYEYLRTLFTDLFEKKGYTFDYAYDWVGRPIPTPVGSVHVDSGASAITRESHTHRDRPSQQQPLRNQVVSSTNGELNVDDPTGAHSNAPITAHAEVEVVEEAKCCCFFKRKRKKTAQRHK

In the case of `COc1cccc(OC)c1C(=O)Nc1cccc(-c2nn3ccccc3c2-c2ccnc(Nc3cccc(F)c3)n2)c1` [UNC10225310A], the inhibition at 1 µM at DRAK2 was determined as 12%; on EPHA7, 14%; on CSNK1G1, 14%; at HIPK1 it was 31%; at CAMK1B it was 0%; on CDC2L2, 0%. The inhibition at 1 µM at DYRK2 and at CHEK2 was 0% in each case.

For `O=c1cc(N2CCOCC2)nc2n(Cc3cccc(Cl)c3Cl)c(C3CC3)nn12` [UNC10225469A], the inhibition at 1 µM was found to be 9% at DRAK2; 0% on EPHA7; 0% at CSNK1G1; 16% at HIPK1; 0% on CAMK1B; 0% at CDC2L2. The inhibition at 1 µM is 1% on DYRK2 and 0% on CHEK2.

For `Cn1cc(-c2cnc(N)c3c(-c4ccc5c(c4)CCN5C(=O)Cc4ccccc4)csc23)cn1` [UNC10225012A], the inhibition at 1 µM came out at 9% at DRAK2; 6% at EPHA7; 21% on CSNK1G1; 21% on HIPK1; 0% at CAMK1B; 1% at CDC2L2. Moreover, the inhibition at 1 µM came to 8% at DYRK2 and 0% on CHEK2.

Take `CS(=O)(=O)Cc1ccc(Nc2nccc(-c3c(-c4cccc(NC(=O)C5CCCCC5)c4)nn4ncccc34)n2)cc1` [UNC10225159A]: the inhibition at 1 µM at DRAK2 stood at 0%; at EPHA7 it was 15%; at CSNK1G1, 2%; at HIPK1, 5%; at CAMK1B it was 0%; at CDC2L2 it was 27%. Besides, the inhibition at 1 µM at DYRK2 is 5%; at CHEK2, 0%.

As for `Cc1ccc(NC(=O)Nc2cccc(C(F)(F)F)c2)cc1` [UNC10225187A], the inhibition at 1 µM came to 0% on DRAK2; 2% at EPHA7; 0% on CSNK1G1; 8% on HIPK1; 0% at CAMK1B; 0% on CDC2L2. For the same molecule, the inhibition at 1 µM at DYRK2 and at CHEK2 was 0% each time.
